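Values below derive from 48-hour exposures of cells grown in 96-well plates, with endpoints linearly interpolated between the two concentrations bracketing the appropriate inhibition level. Abbreviation: GI50, concentration required for 50% inhibition of growth. TGI denotes the concentration required for complete inhibition of growth.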
Experiments:
Assay in all cases: inhibition of tumour cell growth, NCI panel, 48 h
[1] = test system: A498 renal
[2] = test system: LOX IMVI melanoma
[3] = test system: HCC-2998 colon
[4] = test system: HS 578T breast
[5] = test system: SNB-75 CNS
[6] = test system: U251 CNS
[7] = test system: SW-620 colon
[8] = test system: 786-0 renal
[9] = test system: MALME-3M melanoma
[10] = test system: MCF7 breast
[11] = test system: SF-268 CNS
[12] = test system: SK-OV-3 ovarian
[13] = test system: NCI-H226 lung
[14] = test system: HCT-15 colon
[15] = test system: NCI-H23 lung
[16] = test system: CAKI-1 renal
[17] = test system: HOP-92 NSCLC
[18] = test system: UACC-62 melanoma
[19] = test system: SK-MEL-5 melanoma
[20] = test system: SN12C renal
[21] = test system: SF-295 CNS
[22] = test system: MDA-MB-468 breast
[23] = test system: MDA-MB-231 breast
[24] = test system: PC-3 prostate
[25] = test system: T-47D breast
[26] = test system: NCI/ADR-RES ovarian
[27] = test system: M14 melanoma
[28] = test system: HT29 colon
[29] = test system: HOP-62 NSCLC

C#CCCCN(CCNc1ccnc2cc(Cl)ccc12)C(=O)CCC(=O)O[C@@H]1O[C@@H]2OC3(C)CC[C@H]4[C@H](C)CC[C@@H]([C@H]1C)[C@@]24OO3
GI50 [1]: > 11.5 µM | TGI [1]: > 11.5 µM | GI50 [2]: 0.676 µM | TGI [2]: 2.82 µM | GI50 [3]: 2.72 µM | TGI [3]: > 11.5 µM | GI50 [4]: 1.83 µM | TGI [4]: > 11.5 µM | GI50 [5]: > 11.5 µM | TGI [5]: > 11.5 µM | GI50 [6]: 2.73 µM | TGI [6]: > 11.5 µM | GI50 [7]: 0.643 µM | TGI [7]: > 11.5 µM | GI50 [8]: 5.67 µM | TGI [8]: > 11.5 µM | GI50 [9]: 2.56 µM | TGI [9]: > 11.5 µM | GI50 [10]: 0.805 µM | TGI [10]: > 11.5 µM | GI50 [11]: 7.45 µM | TGI [11]: > 11.5 µM | GI50 [12]: > 11.5 µM | TGI [12]: > 11.5 µM | GI50 [13]: 3.76 µM | TGI [13]: > 11.5 µM | GI50 [14]: 0.337 µM | TGI [14]: > 11.5 µM | GI50 [15]: 1.08 µM | TGI [15]: > 11.5 µM | GI50 [16]: 8.21 µM | TGI [16]: > 11.5 µM | GI50 [17]: 0.581 µM | TGI [17]: 6.74 µM | GI50 [18]: 0.878 µM | TGI [18]: > 11.5 µM | GI50 [19]: 1.18 µM | TGI [19]: 8.98 µM | GI50 [20]: 3.06 µM | TGI [20]: > 11.5 µM | GI50 [21]: 1.87 µM | TGI [21]: > 11.5 µM | GI50 [22]: 1.74 µM | TGI [22]: 5.49 µM | GI50 [23]: 9.5 µM | TGI [23]: > 11.5 µM | GI50 [24]: 0.194 µM | TGI [24]: > 11.5 µM | GI50 [25]: 0.402 µM | TGI [25]: > 11.5 µM | GI50 [26]: 1.83 µM | TGI [26]: > 11.5 µM | GI50 [27]: 4.86 µM | TGI [27]: > 11.5 µM | GI50 [28]: 0.701 µM | TGI [28]: > 11.5 µM | GI50 [29]: > 11.5 µM | TGI [29]: > 11.5 µM
